Test results as given in US20250276973A1, “CRYSTAL OF 7H-PYRROLO[2,3-D]PYRIMIDINE-4-AMINE DERIVATIVE” (TAIHO PHARMACEUTICAL CO., LTD., priority 2022, published 2025).

Experiments:
[1] = Dynamic vapor sorption (DVS) test; assay type: physicochemical; settings: 25° C.; for Hygroscopicity (result in words): 5 to 95% RH; for Reversibility of water adsorption when the humidity was decreased: decrease from 95% to 5% RH
Experimental: Vapor sorption tests were performed using the type II crystal of Compound (1) in free form, the type III crystal of Compound (1) in free form, the type VII crystal of Compound (1) in free form, and the type VIII crystal of Compound (1) in free form obtained in the examples, reference example, and comparative example.
Vapor sorption tests were conducted under the following conditions.
Approximately 10 mg of the sample was filled into a specialized quartz holder to continuously measure and record the weight of the sample at each humidity was under the following conditions. The instrument, including data processing, was handled in accordance with the method and procedure indicated for each instrument. • Instrument: VTI-SA+(manufactured by TA Instruments) • Drying temperature: 60° C. • Heating rate: 1° C./min • Equilibration of drying: Confirmation of no more than 0.01 wt % decrease in 5 minutes within a period not exceeding 300 minutes • Measurement temperature: 25° C. • Equilibration of humidification: Confirmation of no more than 0.01 wt % increase in 5 minutes within a period not exceeding 120 minutes • Relative humidity program: Increase from 5 to 95% RH in increments of 5% RH, and decrease from 95% to 5% RH in increments of 5% RH. • Changes in the weight over the range of the measurement conditions obtained in these tests are shown in FIGS. 9 through 12.
Vapor sorption tests were performed using the type III crystal of Compound (1) with succinic acid, the type I crystal of Compound (1) with citric acid, the type IV crystal of Compound (1) with citric acid, the type I crystal of Compound (1) with sorbic acid, and the type I crystal of Compound (1) with phosphoric acid obtained in the examples, reference example, and comparative examples.
Vapor sorption tests were conducted under the same conditions as in Test Example 2.

[2] = Solid stability test (4 weeks of storage at 80° C., closed system; HPLC); assay type: physicochemical; settings: for Chemical purity after 4 weeks of storage at 80° C. / Solid stability (result in words): 80° C. (closed system), 4 weeks; for Chemical purity after 4 weeks of storage at 80° C.: glass bottle; for Chemical purity after 4 weeks of storage at 80° C. / Chemical purity before storage: HPLC; for Solid stability (result in words): related substances by HPLC; for Change (chemical purity): after 4 weeks at 80° C. versus before storage; for Chemical purity before storage: UV 220
Experimental: The solid stability of the type II crystal of Compound (1) in free form, the type III crystal of Compound (1) in free form, the type VII crystal of Compound (1) in free form, and the type VIII crystal of Compound (1) in free form obtained in the examples, reference example, and comparative example were evaluated after 4 weeks of storage by the following procedure. • Storage conditions: 80° C. (closed system) (HIFLEX (high-temperature storage chamber manufactured by ETAC)) • Storage period: 4 weeks • Storage volume: Approximately 30 mg • Storage container: Glass bottle
Changes in the mass of the related substances (the amounts of detected substances other than Compound (1)) were analyzed by HPLC according to the following method. Approximately 8 mg of each sample was weighed and dissolved in I mL of a chloroform-methanol mixture (1:1 v/v). Fifty μL of this solution was measured and diluted with 950 μL of an acetonitrile-water mixture (7:3), and 5 μL of the resulting solution was accurately measured and used as the sample for the analysis.
The mass of the related substances in the sample solution was determined by HPLC analysis. The instrument, including data processing, was handled in accordance with the method and procedure indicated for each instrument. • Column: InertSustainSwift C18 (2.1×50 mm, 1.9 μm) manufactured by GL Sciences • UV detection: […] • Column temperature: 40° C. • Flow rate: 0.3 mL/min • Sample cooler: 10° C. • Sample concentration: 0.1 mg/mL • Mobile phase A: 10 mmol/L phosphate buffer (pH 6.8)/acetonitrile (95:5) mixture • Mobile phase B: Acetonitrile • The gradients are shown in Table 4.
The solid stability of the type III crystal of Compound (1) with succinic acid, the type I crystal of Compound (1) with citric acid, the type IV crystal of Compound (1) with citric acid, the type I crystal of Compound (1) with sorbic acid, and the type I crystal of Compound (1) with phosphoric acid obtained in the examples, reference example, and comparative examples were evaluated after 4 weeks of storage. The evaluation method, storage, and measurement conditions were as described in Test Example 1.

[3] = listed as Type II crystal in free form
[4] = listed as type III crystal of Compound (1) in free form

| Hygroscopicity (result in words) [1] | Chemical purity after 4 weeks of storage at 80° C. [2] [%] | Change (chemical purity) [2] | Chemical purity before storage [2] [%] | Weight increase under 95% relative humidity ([1]; 95% RH) [%] | Chemical purity after 4 weeks of storage at 80° C. [2, 3] [%] | Change (chemical purity) [2, 3] [%] | Chemical purity before storage [2, 3] [%] | Reversibility of water adsorption when the humidity was decreased [1, 4] | Reversibility of water adsorption when the humidity was decreased [1] | SMILES | Solid stability (result in words) [2] | Hygroscopicity (result in words) [1, 4] | Solid stability (result in words) [2, 4] | Solid stability (result in words) ([2]; listed as type VII crystal of Compound (1) in free form) |
| --- | --- | --- | --- | --- | --- | --- | --- | --- | --- | --- | --- | --- | --- | --- |
| highly hygroscopic | 99.63 | – | 99.63 | – | – | – | – | – | irreversible | C#Cc1c(-c2cnc3ccccc3c2)c2c(N)ncnc2n1C12CCC(NC(=O)c3cnc(C)cn3)(CC1)C2 [Type VII crystal in free form, N-(4-(4-amino-6-ethynyl-5-(quinolin-3-yl)-7H-pyrrolo[2,3-d]pyrimidin-7-yl)bicyclo[2.2.1]heptan-1-yl)-5-methylpyrazine-2-carboxamide] | – | – | – | extremely stable crystals with almost no increase in the related substances |
| highly hygroscopic | 99.43 | −0.19% | 99.62 | – | – | – | – | – | irreversible | C#Cc1c(-c2cnc3ccccc3c2)c2c(N)ncnc2n1C12CCC(NC(=O)c3cnc(C)cn3)(CC1)C2 [Type VIII crystal in free form, N-(4-(4-amino-6-ethynyl-5-(quinolin-3-yl)-7H-pyrrolo[2,3-d]pyrimidin-7-yl)bicyclo[2.2.1]heptan-1-yl)-5-methylpyrazine-2-carboxamide] | – | – | – | – |

The remaining lines, values behind:

| SMILES | Hygroscopicity (result in words) [1] | Chemical purity after 4 weeks of storage at 80° C. [2] [%] | Change (chemical purity) [2] | Chemical purity before storage [2] [%] | Weight increase under 95% relative humidity ([1]; 95% RH) [%] | Chemical purity after 4 weeks of storage at 80° C. [2, 3] [%] | Change (chemical purity) [2, 3] [%] | Chemical purity before storage [2, 3] [%] | Reversibility of water adsorption when the humidity was decreased [1, 4] | Reversibility of water adsorption when the humidity was decreased [1] | Solid stability (result in words) [2] | Hygroscopicity (result in words) [1, 4] | Solid stability (result in words) [2, 4] | Solid stability (result in words) ([2]; listed as type VII crystal of Compound (1) in free form) |
| --- | --- | --- | --- | --- | --- | --- | --- | --- | --- | --- | --- | --- | --- | --- |
| C#Cc1c(-c2cnc3ccccc3c2)c2c(N)ncnc2n1C12CCC(NC(=O)c3cnc(C)cn3)(CC1)C2 [Type I crystal of Compound (1) with citric acid] [N-(4-(4-amino-6-ethynyl-5-(quinolin-3-yl)-7H-pyrrolo[2,3-d]pyrimidin-7-yl)bicyclo[2.2.1]heptan-1-yl)-5-methylpyrazine-2-carboxamide] | highly hygroscopic | 99.03 | −0.72% | 99.75 | – | – | – | – | – | – | unstable crystals with decreases in purity | – | – | – |
| C#Cc1c(-c2cnc3ccccc3c2)c2c(N)ncnc2n1C12CCC(NC(=O)c3cnc(C)cn3)(CC1)C2 [Type I crystal of Compound (1) with phosphoric acid] [N-(4-(4-amino-6-ethynyl-5-(quinolin-3-yl)-7H-pyrrolo[2,3-d]pyrimidin-7-yl)bicyclo[2.2.1]heptan-1-yl)-5-methylpyrazine-2-carboxamide] | highly hygroscopic | 99.50 | −0.40% | 99.90 | – | – | – | – | – | – | unstable crystals with decreases in purity | – | – | – |
| C#Cc1c(-c2cnc3ccccc3c2)c2c(N)ncnc2n1C12CCC(NC(=O)c3cnc(C)cn3)(CC1)C2 [Type II crystal of Compound (1) in free form] [N-(4-(4-amino-6-ethynyl-5-(quinolin-3-yl)-7H-pyrrolo[2,3-d]pyrimidin-7-yl)bicyclo[2.2.1]heptan-1-yl)-5-methylpyrazine-2-carboxamide] | hardly hygroscopic | – | – | – | 0.16 | 99.78 | −0.02 | 99.80 | – | – | extremely stable crystals with almost no increase in the related substances | – | – | – |
| C#Cc1c(-c2cnc3ccccc3c2)c2c(N)ncnc2n1C12CCC(NC(=O)c3cnc(C)cn3)(CC1)C2 [Type III crystal in free form, N-(4-(4-amino-6-ethynyl-5-(quinolin-3-yl)-7H-pyrrolo[2,3-d]pyrimidin-7-yl)bicyclo[2.2.1]heptan-1-yl)-5-methylpyrazine-2-carboxamide] | low hygroscopicity as long as RH is less than 65% | 99.60 | +0.02% | 99.58 | – | – | – | – | reversible | – | – | hygroscopicity that sharply increased at above 65% RH | extremely stable crystals with almost no increase in the related substances | – |
| C#Cc1c(-c2cnc3ccccc3c2)c2c(N)ncnc2n1C12CCC(NC(=O)c3cnc(C)cn3)(CC1)C2 [Type IV crystal of Compound (1) with citric acid] [N-(4-(4-amino-6-ethynyl-5-(quinolin-3-yl)-7H-pyrrolo[2,3-d]pyrimidin-7-yl)bicyclo[2.2.1]heptan-1-yl)-5-methylpyrazine-2-carboxamide] | highly hygroscopic | 93.49 | −6.42% | 99.91 | – | – | – | – | – | – | unstable crystals with decreases in purity | – | – | – |
